According to patent US20120295907A1, “INSECTICIDAL COMPOUNDS” (SYNGENTA CROP PROTECTION, LLC, priority 2009, published 2012):
Like-named read-outs stand apart in the source and are kept apart here.

Assays:
Format in all cases: in vivo
Spodoptera littoralis = Spodoptera littoralis (Egyptian Cotton Leafworm) cotton leaf disc spray test; settings: foliar, 72 h, 200 ppm spray on cotton leaf discs, L1 larvae, mortality, feeding behavior, growth regulation 3 DAT
Heliothis virescens = Heliothis virescens (Tobacco Budworm) egg test on artificial diet; settings: 96 h, 200 ppm (concentration in well 18 ppm), eggs 0-24 h old on artificial diet, 4 days, egg mortality, larval mortality, growth regulation
Plutella xylostella = Plutella xylostella (Diamond Back Moth) artificial diet MTP test; settings: 144 h, 200 ppm (concentration in well 18 ppm), L2 larvae, 6 days, larval mortality, growth regulation
Thrips tabaci = Thrips tabaci (Onion Thrips) sunflower leaf disc spray test; settings: foliar, 168 h, 200 ppm spray on sunflower leaf discs, population of mixed ages, 7 days, mortality
Myzus persicae = Myzus persicae (Green Peach Aphid) sunflower leaf disc spray test; settings: foliar, 144 h, 200 ppm spray on sunflower leaf discs, aphid population of mixed ages, 6 DAT, mortality
Diabrotica balteata = Diabrotica balteata (Corn Root Worm) artificial diet MTP test; settings: 120 h, 200 ppm (concentration in well 18 ppm), L2 larvae, 5 days, larval mortality, growth regulation
Tetranychus urticae = Tetranychus urticae (Two-Spotted Spider Mite) bean leaf disc spray test; settings: foliar, 192 h, read-out: control of Tetranychus urticae
[1] = 200 ppm spray on bean leaf discs, mite populations of mixed ages, 8 days, egg, larval and adult mortality

Measured: pest or weed control at 200 ppm

COc1c(NC(=O)c2ccsc2)cccc1C(=O)Nc1c(Cl)cc(C(F)(C(F)(F)F)C(F)(F)C(F)(F)F)cc1Br (stereo not shown) [B124]
≥ 80%: Spodoptera littoralis | Heliothis virescens | Plutella xylostella | Thrips tabaci | Myzus persicae

COc1c(NC(=O)c2ccc(C(F)(F)F)nc2C)cccc1C(=O)Nc1c(Cl)cc(C(F)(C(F)(F)F)C(F)(F)C(F)(F)F)cc1Br (stereo not shown) [B127]
≥ 80%: Spodoptera littoralis | Heliothis virescens | Plutella xylostella | Diabrotica balteata | Thrips tabaci | Tetranychus urticae; [1]

COc1c(NC(=O)c2sc(C)nc2C(F)(F)F)cccc1C(=O)Nc1c(Cl)cc(C(F)(C(F)(F)F)C(F)(F)C(F)(F)F)cc1Br (stereo not shown) [B134]
≥ 80%: Spodoptera littoralis | Heliothis virescens | Plutella xylostella | Diabrotica balteata | Thrips tabaci | Tetranychus urticae; [1]

COc1c(NC(=O)c2ccc(Br)cc2Cl)cccc1C(=O)Nc1c(Cl)cc(C(F)(C(F)(F)F)C(F)(F)C(F)(F)F)cc1Br (stereo not shown) [B135]
≥ 80%: Spodoptera littoralis | Heliothis virescens | Plutella xylostella | Diabrotica balteata | Thrips tabaci | Tetranychus urticae; [1]

COc1c(NC(=O)c2ccc([N+](=O)[O-])cc2C(F)(F)F)cccc1C(=O)Nc1c(Cl)cc(C(F)(C(F)(F)F)C(F)(F)C(F)(F)F)cc1Br (stereo not shown) [B178]
≥ 80%: Spodoptera littoralis | Heliothis virescens | Plutella xylostella | Diabrotica balteata | Thrips tabaci | Tetranychus urticae; [1]

COc1c(NC(=O)c2ccc([N+](=O)[O-])cc2[N+](=O)[O-])cccc1C(=O)Nc1c(Cl)cc(C(F)(C(F)(F)F)C(F)(F)C(F)(F)F)cc1Br (stereo not shown) [B180]
≥ 80%: Spodoptera littoralis | Heliothis virescens | Plutella xylostella | Diabrotica balteata | Thrips tabaci | Tetranychus urticae

COc1c(NC(=O)c2cccc([N+](=O)[O-])c2Cl)cccc1C(=O)Nc1c(Cl)cc(C(F)(C(F)(F)F)C(F)(F)C(F)(F)F)cc1Br (stereo not shown) [B183]
≥ 80%: Spodoptera littoralis | Heliothis virescens | Plutella xylostella | Diabrotica balteata | Thrips tabaci | Tetranychus urticae; [1]

COc1c(NC(=O)c2cccc(Cl)c2Cl)cccc1C(=O)Nc1c(Cl)cc(C(F)(C(F)(F)F)C(F)(F)C(F)(F)F)cc1Br (stereo not shown) [B184]
≥ 80%: Spodoptera littoralis | Heliothis virescens | Plutella xylostella | Diabrotica balteata | Thrips tabaci | Tetranychus urticae; [1]

COc1c(NC(=O)c2ccc([N+](=O)[O-])c(F)c2)cccc1C(=O)Nc1c(Cl)cc(C(F)(C(F)(F)F)C(F)(F)C(F)(F)F)cc1Br (stereo not shown) [B192]
≥ 80%: Spodoptera littoralis | Heliothis virescens | Plutella xylostella | Diabrotica balteata | Thrips tabaci | Tetranychus urticae; [1]

COc1c(NC(=O)c2ccc(C#N)cc2C)cccc1C(=O)Nc1c(Cl)cc(C(F)(C(F)(F)F)C(F)(F)C(F)(F)F)cc1Cl (stereo not shown) [C2, N-[2,6-dichloro-4-(1,2,2,3,3,3-hexafluoro-1-trifluoromethylpropyl)phenyl]-3-(4-cyano-2-methylbenzoylamino)-2-methoxybenzamide]
≥ 80%: Spodoptera littoralis | Heliothis virescens | Plutella xylostella | Diabrotica balteata | Thrips tabaci | Tetranychus urticae; [1]

COc1c(NC(=O)c2ccc([N+](=O)[O-])cc2)cccc1C(=O)Nc1c(Cl)cc(C(F)(C(F)(F)F)C(F)(F)C(F)(F)F)cc1Cl (stereo not shown) [C7]
≥ 80%: Spodoptera littoralis | Heliothis virescens | Plutella xylostella | Diabrotica balteata | Thrips tabaci | Tetranychus urticae; [1]

COc1c(NC(=O)c2ccc(F)cc2C)cccc1C(=O)Nc1c(Cl)cc(C(F)(C(F)(F)F)C(F)(F)C(F)(F)F)cc1Cl (stereo not shown) [C9]
≥ 80%: Spodoptera littoralis | Heliothis virescens | Plutella xylostella | Diabrotica balteata | Thrips tabaci | Tetranychus urticae; [1]

COc1c(NC(=O)c2ccc([N+](=O)[O-])cc2Cl)cccc1C(=O)Nc1c(Cl)cc(C(F)(C(F)(F)F)C(F)(F)C(F)(F)F)cc1Cl (stereo not shown) [C11]
≥ 80%: Spodoptera littoralis | Heliothis virescens | Plutella xylostella | Diabrotica balteata | Thrips tabaci | Tetranychus urticae; [1]

COc1c(NC(=O)c2ccc(OC(F)(F)F)cc2)cccc1C(=O)Nc1c(Cl)cc(C(F)(C(F)(F)F)C(F)(F)C(F)(F)F)cc1Cl (stereo not shown) [C13]
≥ 80%: Spodoptera littoralis | Heliothis virescens | Plutella xylostella | Diabrotica balteata | Thrips tabaci | Tetranychus urticae; [1]

COc1c(NC(=O)c2ccccc2)cccc1C(=O)Nc1c(Cl)cc(C(F)(C(F)(F)F)C(F)(F)C(F)(F)F)cc1Cl (stereo not shown) [C18]
≥ 80%: Spodoptera littoralis | Heliothis virescens | Plutella xylostella | Thrips tabaci | Myzus persicae

COc1c(NC(=O)c2ccccc2C(F)(F)F)cccc1C(=O)Nc1c(Cl)cc(C(F)(C(F)(F)F)C(F)(F)C(F)(F)F)cc1Cl (stereo not shown) [C20]
≥ 80%: Spodoptera littoralis | Heliothis virescens | Plutella xylostella | Diabrotica balteata | Thrips tabaci | Tetranychus urticae; [1]

COc1c(NC(=O)c2snnc2C)cccc1C(=O)Nc1c(Cl)cc(C(F)(C(F)(F)F)C(F)(F)C(F)(F)F)cc1Cl (stereo not shown) [C21]
≥ 80%: Spodoptera littoralis | Heliothis virescens | Plutella xylostella | Diabrotica balteata | Thrips tabaci | Tetranychus urticae; [1]

COc1c(NC(=O)c2cccc(F)c2F)cccc1C(=O)Nc1c(Cl)cc(C(F)(C(F)(F)F)C(F)(F)C(F)(F)F)cc1Cl (stereo not shown) [C22]
≥ 80%: Spodoptera littoralis | Heliothis virescens | Plutella xylostella | Diabrotica balteata | Thrips tabaci | Tetranychus urticae; [1]

COc1c(NC(=O)c2ccc(F)cc2F)cccc1C(=O)Nc1c(Cl)cc(C(F)(C(F)(F)F)C(F)(F)C(F)(F)F)cc1Cl (stereo not shown) [C23]
≥ 80%: Spodoptera littoralis | Heliothis virescens | Plutella xylostella | Diabrotica balteata | Thrips tabaci | Tetranychus urticae; [1]

COc1c(NC(=O)c2ccc(F)cc2C)cccc1C(=O)Nc1c(Cl)cc(C(F)(C(F)(F)F)C(F)(F)F)cc1Cl [E7]
≥ 80%: Spodoptera littoralis | Heliothis virescens | Plutella xylostella | Diabrotica balteata | Thrips tabaci | Tetranychus urticae; [1]

COc1c(NC(=O)c2ccc(F)cc2Cl)cccc1C(=O)Nc1c(Cl)cc(C(F)(C(F)(F)F)C(F)(F)F)cc1Cl [E19]
≥ 80%: Spodoptera littoralis | Heliothis virescens | Plutella xylostella | Diabrotica balteata | Thrips tabaci | Tetranychus urticae; [1]

COc1c(NC(=O)c2snnc2C)cccc1C(=O)Nc1c(Cl)cc(C(F)(C(F)(F)F)C(F)(F)F)cc1Cl [E20]
≥ 80%: Spodoptera littoralis | Heliothis virescens | Plutella xylostella | Diabrotica balteata | Thrips tabaci | Tetranychus urticae; [1]

COc1c(NC(=O)c2cccc(C#N)c2)cccc1C(=O)Nc1c(C)cc(C(F)(C(F)(F)F)C(F)(F)C(F)(F)F)cc1C (stereo not shown) [F21]
≥ 80%: Spodoptera littoralis | Heliothis virescens | Plutella xylostella | Diabrotica balteata | Thrips tabaci | Tetranychus urticae; [1]

COc1c(NC(=O)c2ccc([N+](=O)[O-])cc2)cccc1C(=O)Nc1c(C)cc(C(F)(C(F)(F)F)C(F)(F)C(F)(F)F)cc1C (stereo not shown) [F29]
≥ 80%: Spodoptera littoralis | Heliothis virescens | Plutella xylostella | Diabrotica balteata | Thrips tabaci | Tetranychus urticae; [1]

COCc1cc(C(F)(C(F)(F)F)C(F)(F)C(F)(F)F)cc(Cl)c1NC(=O)c1cccc(NC(=O)c2ccc(C#N)cc2C)c1OC (stereo not shown) [H1]
≥ 80%: Heliothis virescens | Plutella xylostella | Myzus persicae

COc1c(NC(=O)c2c(F)cc(F)cc2F)cccc1C(=O)Nc1c(C)cc(C(F)(C(F)(F)F)C(F)(F)F)cc1C [K1]
≥ 80%: Spodoptera littoralis | Heliothis virescens | Plutella xylostella | Diabrotica balteata | Thrips tabaci | Tetranychus urticae; [1]
